Consider one substance from US5082828A, “Eclosion hormone peptides” (Sandoz Ltd., priority 1991, dated 1992).

Data set [1] concerns late second stadium M. sexta. Type of data set: in vivo, Manduca sexta. How it is done: The biological activity of isolated EH is assayed as follows. Late second stadium M. sexta are selected for assay when third stadium mandibles are visible through the fluid-filled second stadium head capsule. Development of these larvae, held at 31° C., is checked at 15 min intervals until an air bubble first appears in the head capsule. "Air bubble" larvae are immediately injected in the dorsal abdomen with 1 μl of the test fractions, and time to molt of treated and controls is compared at room temperature ~21° C.). Mean time to molt for EH-affected larvae is 50 min; that for controls is 109 min. Purified EH is active at 0.1 ng per pharate adult H. virescens, and at 0.01 ng per second stadium M. sexta.

For data set [2], the system named is pharate adult H. virescens. The arrangement: species or system Heliothis virescens. Conditions: in vivo. The protocol:
The biological activity of EH in fractions from each purification step is detected using a pharate adult H. virescens in vivo assay, similar to that described by Fugo (1983) Appl. Ent. Zoo. 18:540-44 and Truman (1973) Biol. Bull. 14:44:200-211, both of which are incorporated by reference. Insects are injected in the dorsal thorax with 5 μl aliquots dissolved in physiological saline, approximately 7 hr before normal eclosion, which occurs just after the onset of darkness. Moths eclosing within 3 hr of injection are scored as receiving EH, a positive response.

Another data set deals with larval molt. Conditions: EH present in the hemolymph during a sensitive period when it is normally absent; cited from earlier work.

On to Eclosion hormone [EH], for which the “mean time to molt” value in data set [1] (EH-affected larvae at room temperature ~21° C., controls 109 min) is recorded as 50 min. For the same substance, the “dose evoking positive EH-like response (active dose)” value is 0.01 ng per second stadium M. sexta in data set [1] (in vivo) and 0.1 ng per pharate adult in data set [2]. Further, the “effect on larval molt” value in the data set on larval molt is reported as “block the larval molt completely”.
